The values below come from US20220162610A1, “NOVEL RNA TRANSCRIPT” (PTC Therapeutics, Inc., priority 2020, published 2022).

A short description of series [1]: Unbound brain partition coefficient (Kp,uu) from mouse PK studies. The conditions noted are these: FVB (WT littermates of the BACHD colony), brain and plasma (unbound), oral, 10 mg/kg, average over animals of multiple mouse PK studies. Type of series: in vivo. As to the method: Oral pharmacokinetics (PK) of compounds was evaluated in WT littermates from the BACHD colony (FVB background). Mice were treated with test compounds (10 mg/kg) by oral gavage in 0.5% hydroxypropylmethyl cellulose (HPMC) with 0.1% Tween 80. Blood was collected by terminal cardiac puncture at specified time points (3 mice per time point) and centrifuged to generate plasma. Brain tissue was collected at the time of blood collection and homogenized in water. Protein was precipitated from plasma and brain homogenates with acetonitrile, methanol mixture (5:1, v:v) containing an internal standard that is a close analog of the test compounds. The mixture was filtered through an EMD Millipore MultiScreen™ Solvinert Filter Plate (MSRLN04, Millipore, Burlington, Mass.). Calibration standards were prepared in the same matrix and processed with the testing samples. Filtrates were analysed using Acquity ultra performance liquid chromatography (UPLC) system (Waters Corporation) tandem with Xevo TQ-s Spectrometer (Waters Corporation). Samples were injected on to a Waters UPLC Acquity BEH C18 Column (2.1*50 mm, 1.7 μm) maintained at 50° C. The injection volume was 3 μL and the mobile phase flow rate was 0.45 mL/min. The mobile phase consisted of 2 solvents: A) 0.1% formic acid in water and B) 0.1% formic acid in acetonitrile. The initial mobile phase started with 5% solvent B for 0.4 min, which was changed to […] over 0.8 min with linear gradients and then maintained at 95% solvent B for another 0.4 min. The drug concentrations were acquired and processed with MassLynx 4.1 software. PK parameters were estimated using the non-compartment method within Phoenix® WinNonlin® Build 8.1 (Certara USA, Inc., Princeton, N.J.).
The unbound brain partition coefficient (Kp,uu) is defined as the ratio between unbound brain free drug concentration and unbound plasma concentration. It was calculated using the following equation:
Kp,uu=Cbrain×fu,b/(Cplasma*fu,p)
Cbrain and Cplasma represent the compound concentrations in brain and plasma, respectively. fu,b and fu,p are the unbound fraction of each testing article in brain and plasma, respectively. Both fu,b and fu,p were determined in vitro using Pierce Rapid Equilibrium Dialysis (RED) device at Absorption System LLC (Exton, Pa.). Kp,uu was calculated individually for each animal from multiple mouse PK studies and the average values are reported here.

For another series, the system named is HTT mRNA. The experiment in a line: RT-qPCR quantification of HTT mRNA in HD patient fibroblasts, 24 h. Type of series: cell-based, human. To be noted: fibroblasts derived from HD patients. As to the method:
Test compounds were serially diluted 3-fold in 100% DMSO to generate a 7-point concentration curve. A solution of test compound (500 nl, 200× in DMSO) was added to each test well with Acoustic Transfer System. Fibroblasts were seeded in 96-well flat-bottomed plates (Thermo Fisher Scientific) at 1×10^4 cells/well in 100 μl of culture medium containing the test compound or DMSO vehicle control and incubated for 24 hours (37° C., 5% CO2, 100% relative humidity). After removal of the supernatant, cells were lysed in RNA lysis buffer (1M Tris-HCL pH 7.4, 5M NaCl, 10% IGEPAL®CA-630; 50 μL/well) for 1 minute at RT, before 50 μL of chilled nuclease free water was added to each well; plates were then transferred immediately onto ice before storing at −80° C. overnight.
Cell lysates were assayed by quantitative reverse transcriptase polymerase chain reaction (RT-qPCR) to measure mRNA levels of HTT and glyceraldehyde 3-phosphate dehydrogenase (GAPDH) in the presence or absence of the test compound.
A reverse transcriptase quantitative polymerase chain reaction (RT-qPCR) reaction mixture of primers and probe sets for HTT and GAPDH was prepared according to TABLE III. […]
On the technique in general: Real-time PCR tracks product formation cycle by cycle.

The target of another series is T1, MDR1 (Homo sapiens, UniProt P08183).
T1 construct: host or cells: MDCK (Madin-Darby Canine Kidney) cells expressing MDR1
Briefly: MDCK-MDR1 efflux assay. Type of series: in vitro ADME. To be noted: 10 μM, MDCK-MDR1 and MDCK-WT monolayers, 1 hour. As to the method:
The MDR1 efflux assay was conducted at Absorption System LLC (Exton, Pa.). Briefly, MDCK-MDR1 and MDCK-WT cell monolayers were grown to confluence on collagen-coated, microporous membranes in 12-well assay plates (Thermofisher). Compound solutions (10 μM) in permeability assay buffer (Hanks' balanced salt solution (HBSS), 10 mM HEPES, 15 mM glucose; pH of 7.4) were placed in the donor chamber. The receiver chamber was filled with assay buffer plus 1% BSA. Cell monolayers were dosed on the apical side (A-to-B) or basolateral side (B-to-A) and incubated at 37° C. (5% CO2, 100% relative humidity). Sampling from the donor chambers was performed at 0 and 1 hour; and from the receiver chambers at 1 hour. Each determination was performed in duplicate. The flux of lucifer yellow was also measured post-experimentally for each monolayer to ensure no damage was inflicted to the cell monolayers during the flux period. All samples were assayed by LC-MS/MS using electrospray ionisation. The apparent permeability (Papp) and percent recovery was determined using the following equation: […]
dCr/dt represents the slope of the cumulative receiver concentration versus time in μM/s; Vr is the volume of the receiver compartment (cm3); Vd is the volume of the donor compartment in (cm3); A is the area of the insert (1.13 cm2 for 12-well); C0 is the average measured concentration of the donor chamber at time zero in μM; Net Efflux ratio (ER) is defined as […].

A further series relates to HTT pre-mRNA. Briefly: Ampliseq/RNAseq analysis of intron 49 pseudoexon inclusion and HTT expression in different cell types. Type of series: cell-based, human. To be noted: for inclusion of intron 49 pseudoexon: HD fibroblasts, SH-SY5Y, TK6, MRC-5 cells.

T1 sequence (P08183 whole entry): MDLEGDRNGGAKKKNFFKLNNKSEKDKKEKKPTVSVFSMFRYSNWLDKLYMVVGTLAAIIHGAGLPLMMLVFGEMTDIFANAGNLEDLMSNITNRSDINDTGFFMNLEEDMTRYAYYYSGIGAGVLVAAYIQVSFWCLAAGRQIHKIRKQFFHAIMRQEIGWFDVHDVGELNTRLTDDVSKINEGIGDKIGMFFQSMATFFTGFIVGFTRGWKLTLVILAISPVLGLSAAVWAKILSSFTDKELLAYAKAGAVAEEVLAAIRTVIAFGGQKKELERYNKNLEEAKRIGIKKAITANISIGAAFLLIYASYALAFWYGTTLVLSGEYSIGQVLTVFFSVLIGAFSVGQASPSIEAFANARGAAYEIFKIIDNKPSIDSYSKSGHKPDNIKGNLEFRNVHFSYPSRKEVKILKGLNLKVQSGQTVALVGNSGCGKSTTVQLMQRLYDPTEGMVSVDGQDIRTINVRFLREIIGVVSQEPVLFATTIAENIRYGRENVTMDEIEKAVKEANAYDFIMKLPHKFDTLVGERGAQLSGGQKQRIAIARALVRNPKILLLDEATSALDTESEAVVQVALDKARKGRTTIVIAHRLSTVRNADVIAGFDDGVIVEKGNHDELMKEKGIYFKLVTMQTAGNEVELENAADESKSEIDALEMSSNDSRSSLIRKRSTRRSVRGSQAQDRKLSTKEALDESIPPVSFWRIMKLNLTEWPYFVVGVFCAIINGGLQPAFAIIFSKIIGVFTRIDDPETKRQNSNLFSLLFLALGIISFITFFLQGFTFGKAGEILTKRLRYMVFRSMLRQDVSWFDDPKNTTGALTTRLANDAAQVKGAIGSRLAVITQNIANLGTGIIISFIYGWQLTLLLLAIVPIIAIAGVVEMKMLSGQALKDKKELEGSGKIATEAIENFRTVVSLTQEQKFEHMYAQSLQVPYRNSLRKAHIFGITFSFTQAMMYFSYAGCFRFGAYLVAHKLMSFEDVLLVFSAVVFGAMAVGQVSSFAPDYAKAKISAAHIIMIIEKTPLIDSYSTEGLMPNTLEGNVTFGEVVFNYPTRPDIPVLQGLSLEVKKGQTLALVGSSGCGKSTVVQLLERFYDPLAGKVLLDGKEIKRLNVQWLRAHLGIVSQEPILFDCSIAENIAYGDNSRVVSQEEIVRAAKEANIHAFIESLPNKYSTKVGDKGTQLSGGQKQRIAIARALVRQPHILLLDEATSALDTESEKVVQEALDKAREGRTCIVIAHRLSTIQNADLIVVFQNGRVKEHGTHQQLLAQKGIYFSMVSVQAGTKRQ

`CCN1CCC(c2cc(C)c3nc(-c4ccc5nn(C)cc5c4)cc(=O)n3c2)CC1` [HTT-D1] came in with a Kp uu in series [1] of 0.242. Moreover, in the series with HTT mRNA, the “amount of HTT mRNA” value is given as “dose-dependent decrease”. The “NET MDR1 ER” value on MDR1 is 11.8.
In series [1], `CC1(C)CC(Oc2ccc(-c3ccc(-c4cn[nH]c4)cc3O)nn2)CC(C)(C)N1` [HTT-C2] registered a Kp uu of 0.179. Besides, the “HTT gene expression quantified using RNAseq (FPKM)” value in the series with HTT pre-mRNA (100 nM, SHSY5Y cells (HTT-C2), TK6 cells (HTT-C3)) is reported as “reduced HTT gene expression”. The “inclusion of intron 49 pseudoexon” value with HTT pre-mRNA was “induced the inclusion of an Intron 49 pseudoexon”.
On to `CC1(C)CC(Oc2ccc(-c3ccc(-c4ccnc(O)c4)cc3O)nn2)CC(C)(C)N1` [HTT-C1], for which the Kp uu in series [1] was determined as 0.084. Also, the “inclusion of intron 49 pseudoexon” value in the series with HTT pre-mRNA is “induced the inclusion of an Intron 49 pseudoexon”. Besides, in the series on HTT mRNA, the “amount of HTT mRNA” value is “dose-dependent decrease”. Also, at MDR1, the “NET MDR1 ER” value is recorded as over 62.7.
`CCN1CCC(c2cc3c(F)cc(-c4cc(C)c5nc(C)cn5n4)cc3nn2)CC1` [HTT-D3] came in with a Kp uu in series [1] of 0.472. The “inclusion of intron 49 pseudoexon” value in the series with HTT pre-mRNA was “induced the inclusion of an Intron 49 pseudoexon”. Moreover, the “NET MDR1 ER” value at MDR1 stood at 7.10.
